Data on 29 molecules can be found in US20250026765A1, “SPIROHETEROCYCLE DERIVATIVE HAVING SEROTONIN RECEPTOR BINDING ACTIVITY” (Shionogi & Co., Ltd., priority 2021, published 2025).

Where two headings read alike, the source gives them in different places.

In assay [1] the target is human recombinant 5-HT2A receptor (Homo sapiens (Human), UniProt P28223). Briefly: 5-HT2A receptor binding inhibition test ([3H]-Ketanserin). Particulars: Jump-In HEK cell membrane, 25° C. 1.5 hours. The protocol:
Test Example 1: 5-HT2A Receptor Binding Inhibition Test
(§1) (Each Experimental Condition)
Cell membrane: 15 μg of Jump-In HEK cell membrane (expressing human recombinant 5-HT2A receptor) per well
(§2) Assay buffer: Tris-HCl 50 mmol/L (pH 7.4) containing NaCl 120 mmol/L, MgCl2·6H2O 1 mmol/L, KCl 5 mmol/L, 0.1% BSA and CaCl2 2 mmol/L
Radioactive ligand: [^3H]-Ketanserin with a final concentration of around Kd value calculated by the following method
Non-specific ligand: Serotonin HCl with a final concentration of 500 μmol/L
(§3) The Kd value is calculated when the lot of cell membrane is changed. In advance, 0.5 μL of a 1 mmol/L compound for non-specific binding calculation dissolved in DMSO or DMSO is dispensed into a microplate, and the cell membrane is diluted with an Assay buffer. The radioactive ligand solution is serially diluted and the count is confirmed with a liquid scintillator. Assay buffer containing diluted cell membrane is dispensed into a microplate at 50 μL/well. Then, the radioactive ligand solution is dispensed into a microplate at 50 μL/well, and the plate is sealed. It is allowed to stand at room temperature (25° C.) for 1.5 hours. During this period, 50 mmol/L Tris-HCl (pH 7.4) is dispensed into a GF/B UniFilter plate at 50 μL/well and allowed to stand at 4° C. for 1 hour or longer. After that, filtration is performed with Cell harvester (PerkinElmer). The radioactive ligand solution is dispensed into an empty well of the GF/B UniFilter plate at 10 μL/well. After the GF/B UniFilter plate is dried at room temperature, MicroScinti 20 is dispensed into the GF/B UniFilter plate at 50 μL/well to seal the plate. The GF/B UniFilter plate is allowed to stand overnight at room temperature. The radioactivity of [^3H]-Ketanserin bound to the 5-HT2A receptor is measured using Microbeta2 (PerkinElmer) at a measurement time of 1 min/well. The Saturation curve is drawn from the measured value, and the Kd value is calculated from the slope of the Scatchard Plot.
(§4) (Binding Test of the Compound According to the Present Invention)
In advance, 0.5 μL of the compound solution dissolved in DMSO is dispensed into a microplate, and the cell membrane and the hot ligand are diluted with Assay buffer, respectively. Then, the Assay buffer containing the diluted cell membrane is dispensed into a microplate at 50 μL/well. Then, the radioactive ligand solution is dispensed into a microplate at 50 μL/well, and the plate is sealed. Then, it is allowed to stand at room temperature (25° C.) for 1.5 hours. During this period, 50 mmol/L Tris-HCl (pH 7.4) is dispensed into a GF/B UniFilter plate at 50 μL/well and allowed to stand at 4° C. for 1 hour or longer. After that, filtration is performed with Cell harvester (PerkinElmer). After the GF/B UniFilter plate is dried at room temperature, MicroScinti 20 is dispensed into the GF/B UniFilter plate at 50 μL/well to seal the plate. The GF/B UniFilter plate is allowed to stand overnight at room temperature. The radioactivity of [^3H]-Ketanserin bound to the 5-HT2A receptor is measured using Microbeta2 (PerkinElmer) at a measurement time of 1 min/well. The non-specific binding is calculated from the radioactivity of [^3H]-Ketanserin in the presence of 500 μmol/L Serotonin HCl which is the unlabeled ligand, and the total binding is calculated from the radioactivity of [^3H]-Ketanserin in the absence of the compound according to the present invention (Vehicle). Finally, the Ki value is calculated from the dose-response curve.
(§5) (The binding activity of the compound according to the present invention is calculated from the following binding inhibition rate (%).)
(§6) [formula] • a; mean cpm of non-specific binding • b; average cpm of total binding • c; cpm in the presence of the test compound

For assay [2], the target named is human recombinant 5-HT2C receptor (Homo sapiens (Human), UniProt P28335). Briefly: 5-HT2C receptor binding inhibition test ([3H]-Mesulergine). Particulars: Jump-In HEK cell membrane, 37° C. 2 hours. The method, then: Test Example 2: 5-HT2C Receptor Binding Inhibition Test
human recombinant 5-HT2C receptor, sequence (P28335 33-458): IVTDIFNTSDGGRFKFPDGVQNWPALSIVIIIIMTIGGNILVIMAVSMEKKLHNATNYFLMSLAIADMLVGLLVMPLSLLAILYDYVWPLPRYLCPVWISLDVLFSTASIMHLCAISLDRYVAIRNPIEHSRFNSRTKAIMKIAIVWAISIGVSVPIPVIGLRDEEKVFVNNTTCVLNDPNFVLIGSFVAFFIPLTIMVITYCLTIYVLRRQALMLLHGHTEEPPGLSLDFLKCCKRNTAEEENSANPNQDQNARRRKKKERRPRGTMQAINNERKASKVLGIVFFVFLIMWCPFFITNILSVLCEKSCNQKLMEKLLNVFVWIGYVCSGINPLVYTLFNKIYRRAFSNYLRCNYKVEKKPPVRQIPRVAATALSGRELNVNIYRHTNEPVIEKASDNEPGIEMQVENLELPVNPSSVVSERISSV
as §1
Cell membrane: 0.5 μg of Jump-In HEK cell membrane (expressing human recombinant 5-HT2C receptor) per well
as §2
Radioactive ligand: [^3H]-Mesulergine with a final concentration of around Kd value calculated by the following method
Non-specific ligand: Serotonin HCl with a final concentration of […]
as §3, with “37° C.” for “room temperature (25° C.)”, “2” for “1.5”, “[^3H]-Mesulergine” for “[^3H]-Ketanserin”, “5-HT2C” for “5-HT2A”
as §4
In advance, 0.5 μL of the compound solution dissolved in DMSO is dispensed into a microplate, and the cell membrane and the hot ligand are diluted with Assay buffer, respectively. Then, the Assay buffer containing the diluted cell membrane is dispensed into a microplate at 50 μL/well. Then, the radioactive ligand solution is dispensed into a microplate at 50 μL/well, and the plate is sealed. Then, it is allowed to stand at 37° C. for 2 hours. During this period, 50 mmol/L Tris-HCl (pH 7.4) is dispensed into a GF/B UniFilter plate at 50 μL/well and allowed to stand at 4° C. for 1 hour or longer. After that, filtration is performed with Cell harvester (PerkinElmer). After the GF/B UniFilter plate is dried at room temperature, MicroScinti 20 is dispensed into the GF/B UniFilter plate at 50 μL/well, and the plate is sealed. The GF/B UniFilter plate is allowed to stand overnight at room temperature. The radioactivity of [^3H]-Mesulergine bound to the 5-HT2C receptor is measured using Microbeta2 (PerkinElmer) at a measurement time of 1 min/well. The non-specific binding is calculated from the radioactivity of […] in the presence of 500 μmol/L Serotonin HCl which is the unlabeled ligand, and the total binding is calculated from the radioactivity of [^3H]-Mesulergine in the absence of the compound according to the present invention (Vehicle). Finally, the Ki value is calculated from the dose-response curve.
as §5, §6

Where [3] appears, read: read-out: human serotonin 5-HT2A receptor binding activity Ki.
[4] abbreviates: read-out: human serotonin 5-HT2C receptor binding activity Ki.

human recombinant 5-HT2A receptor, sequence (P28223 whole entry): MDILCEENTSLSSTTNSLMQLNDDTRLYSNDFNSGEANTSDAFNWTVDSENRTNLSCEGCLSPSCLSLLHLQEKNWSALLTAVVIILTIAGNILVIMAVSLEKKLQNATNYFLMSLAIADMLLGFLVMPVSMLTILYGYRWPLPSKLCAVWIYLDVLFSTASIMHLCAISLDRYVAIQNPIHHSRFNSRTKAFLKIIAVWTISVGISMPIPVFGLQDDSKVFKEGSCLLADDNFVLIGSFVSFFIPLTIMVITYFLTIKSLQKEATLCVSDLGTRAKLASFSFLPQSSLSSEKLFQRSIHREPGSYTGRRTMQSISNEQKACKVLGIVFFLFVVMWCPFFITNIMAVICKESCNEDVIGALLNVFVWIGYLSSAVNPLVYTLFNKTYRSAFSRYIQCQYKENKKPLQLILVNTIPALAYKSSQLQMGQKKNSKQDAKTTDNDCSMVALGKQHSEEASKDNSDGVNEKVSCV

In general, Ki refers to a dissociation constant, usually derived from enzyme kinetics or from competition with a known ligand. `CC(C)COc1ccc(CN(Cc2ccc(F)cn2)C2=NOC3(CCN(C)CC3)N2)cc1` [Compound I-007]: the Ki in assay [1] (read-out: h-5-HT2A Ki) is below 10 nM; in assay [2] (read-out: h-5-HT2C Ki) it was 10 to 100 nM.

Regarding `CC(C)COc1ccc(CCC2=NOC3(CCN(C)CC3)N2Cc2ccc(F)cc2)cc1` [Compound I-008], the figures for the Ki in assay [1] (read-out: h-5-HT2A Ki) and in assay [2] (read-out: h-5-HT2C Ki) were 10 to 100 nM and 100 to 500 nM, respectively.

Turning to `CC(C)COc1ccc(CN(Cc2ccn(C)n2)C2=NOC3(CCN(C)CC3)N2)cc1` [Compound I-009], the Ki in assay [1] (read-out: h-5-HT2A Ki) and in assay [2] (read-out: h-5-HT2C Ki) was below 10 nM in each case.

`CN1CCC2(CC1)NC(N(Cc1ccc(OCC(F)(F)C(F)F)cc1)Cc1ccn(C)n1)=NO2` [Compound I-010]: the Ki in assay [1] (read-out: h-5-HT2A Ki) and in assay [2] (read-out: h-5-HT2C Ki) was below 10 nM throughout.

Regarding `Cc1nc(CN(Cc2ccc(OCC(C)C)cc2)C2=NOC3(CCN(C)CC3)N2)co1` [Compound I-011], the Ki in assay [1] (setting [3]) worked out at 1.22 nM; in assay [2] (setting [4]), 0.585 nM.

Turning to `CC(C)COc1ccc(CN(Cc2ccccn2)C2=NOC3(CCN(C)CC3)N2)cc1` [Compound I-012], the Ki in assay [1] (read-out: h-5-HT2A Ki) is below 10 nM; in assay [2] (read-out: h-5-HT2C Ki) it was 10 to 100 nM.

Consider `Cc1cccc(CN(Cc2ccc(OCC(C)C)cc2)C2=NOC3(CCN(C)CC3)N2)n1` [Compound I-013], for which the Ki in assay [1] (read-out: h-5-HT2A Ki) and in assay [2] (read-out: h-5-HT2C Ki) was 10 to 100 nM each time.

In the case of `CCCOc1ccc(CN(Cc2ccn(C)n2)C2=NOC3(CCN(C)CC3)N2)cc1` [Compound I-014], the Ki in assay [1] (read-out: h-5-HT2A Ki) was below 10 nM; in assay [2] (read-out: h-5-HT2C Ki), 10 to 100 nM.

For the molecule `CC(C)COc1ccc(CN(Cc2ccn(C(F)F)n2)C2=NOC3(CCN(C)CC3)N2)cc1` [Compound I-015], the figures for the Ki in assay [1] (read-out: h-5-HT2A Ki) and in assay [2] (read-out: h-5-HT2C Ki) were below 10 nM and 10 to 100 nM, respectively.

For the molecule `Cc1ccc(CN(Cc2ccc(OCC(C)C)cc2)C2=NOC3(CCN(C)CC3)N2)nc1` [Compound I-016], the Ki in assay [1] (read-out: h-5-HT2A Ki) and in assay [2] (read-out: h-5-HT2C Ki) was below 10 nM throughout.

As to `Cc1nc(CN(Cc2ccc(OCC(C)C)cc2)C2=NOC3(CCN(C)CC3)N2)cs1` [Compound I-017], the inhibitory constant (Ki) in assay [1] (read-out: h-5-HT2A Ki) and in assay [2] (read-out: h-5-HT2C Ki) was below 10 nM throughout.

Consider `Cc1nc(CN(Cc2ccc(OCC(C)C)cc2)C2=NOC3(CCN(C)CC3)N2)no1` [Compound I-018], for which the Ki in assay [1] (read-out: h-5-HT2A Ki) was 10 to 100 nM; in assay [2] (read-out: h-5-HT2C Ki), below 10 nM.

In the case of `CC(C)COc1ccc(CN(Cc2cn(C)cn2)C2=NOC3(CCN(C)CC3)N2)cc1` [Compound I-019], the Ki in assay [1] (read-out: h-5-HT2A Ki) was below 10 nM; in assay [2] (read-out: h-5-HT2C Ki) it was 100 to 500 nM.

`CC(C)COc1ccc(CN(Cc2ccc(F)cc2)C2=NC3(CCN(C)CC3)CO2)cc1` [Compound I-020]: the Ki lay within 10 to 100 nM in assay [1] (read-out: h-5-HT2A Ki) and 100 to 500 nM in assay [2] (read-out: h-5-HT2C Ki).

With `CC(C)COc1ccc(CN(Cc2ccc(F)cc2)C2=NC(=O)C3(CCN(C)CC3)N2)cc1` [Compound I-021], the Ki in assay [1] (read-out: h-5-HT2A Ki) is below 10 nM; in assay [2] (read-out: h-5-HT2C Ki), 10 to 100 nM.

With `CC(C)COc1ccc(CN(Cc2ccc(F)cc2)C2=NC(=O)C3(CCNCC3)N2)cc1` [Compound I-022], the Ki in assay [1] (read-out: h-5-HT2A Ki) and in assay [2] (read-out: h-5-HT2C Ki) was below 10 nM in each case.

For `CC(C)CNc1ccc(CN(Cc2ccn(C)n2)C2=NOC3(CCN(C)CC3)N2)cc1` [Compound I-023], the Ki in assay [1] (read-out: h-5-HT2A Ki) and in assay [2] (read-out: h-5-HT2C Ki) was 10 to 100 nM throughout.

In the case of `CCCOc1ccc(CC2=NOC3(CCN(C)CC3)N2Cc2ccc(F)cn2)cc1` [Compound I-024], the Ki in assay [1] (read-out: h-5-HT2A Ki) is below 10 nM; in assay [2] (read-out: h-5-HT2C Ki), 10 to 100 nM.

With `CCCOc1ccc(CC2=NOC3(CCN(C)CC3)N2Cc2ccn(C)n2)cc1` [Compound I-025], the Ki in assay [1] (read-out: h-5-HT2A Ki) and in assay [2] (read-out: h-5-HT2C Ki) was 10 to 100 nM throughout.

As to `CCCOc1ccc(CC2=NOC3(CCN(C)CC34CC4)N2Cc2ccc(F)cn2)cc1` (stereo not shown) [Compound I-026], the Ki in assay [1] (read-out: h-5-HT2A Ki) and in assay [2] (read-out: h-5-HT2C Ki) was below 10 nM each time.

Turning to `CCCOc1ccc(CC2=NOC3(CCN(C)CC34CC4)N2Cc2ccn(C)n2)cc1` (stereo not shown) [Compound I-027], the figures for the Ki in assay [1] (setting [3]) and in assay [2] (setting [4]) were 1.89 nM and 2.21 nM, respectively.

As for `CCCOc1ccc(CN(Cc2coc(C)n2)C2=NOC3(CCN(C)CC3)N2)cc1` [Compound I-028], the Ki in assay [1] (read-out: h-5-HT2A Ki) and in assay [2] (read-out: h-5-HT2C Ki) was below 10 nM each time.

Take `CC(C)COc1ccc(CN(Cc2ccc(F)cn2)C2=NC(=O)C3(CCN(C)CC3)N2)cc1` [Compound I-030]: the Ki was below 10 nM in assay [1] (read-out: h-5-HT2A Ki) and 10 to 100 nM in assay [2] (read-out: h-5-HT2C Ki).

For `CC(C)COc1ccc(CN(Cc2cocn2)C2=NOC3(CCN(C)CC3)N2)cc1` [Compound I-031], the Ki in assay [1] (read-out: h-5-HT2A Ki) and in assay [2] (read-out: h-5-HT2C Ki) was 10 to 100 nM throughout.

On to `Cc1cnc(CN(Cc2ccc(OCC(C)C)cc2)C2=NOC3(CCN(C)CC3)N2)o1` [Compound I-032], for which the Ki in assay [1] (read-out: h-5-HT2A Ki) and in assay [2] (read-out: h-5-HT2C Ki) was 10 to 100 nM each time.

On to `CC(C)COc1ccc(CN(Cc2ccn(C)n2)C2=NC(=O)C3(CCN(C)CC3)N2)cc1` [Compound I-033], for which the Ki in assay [1] (setting [3]) is 10.1 nM; in assay [2] (setting [4]) it was 19 nM.

In the case of `CC(C)COc1ccc(CN(Cc2ccn(C)n2)C2=NOC3(CCNCC3)N2)cc1` [Compound I-036], the Ki in assay [1] (read-out: h-5-HT2A Ki) and in assay [2] (read-out: h-5-HT2C Ki) was below 10 nM throughout.

As to `Cc1nc(CN(Cc2ccc(OCC(C)C)cc2)C2=NC(=O)C3(CCN(C)CC3)N2)co1` [Compound I-039], the Ki in assay [1] (read-out: h-5-HT2A Ki) is 10 to 100 nM; in assay [2] (read-out: h-5-HT2C Ki), below 10 nM.

In the case of `CC(C)COc1ccc(CN(Cc2cnn(C)c2)C2=NOC3(CCN(C)CC3)N2)cc1` [Compound I-046], the Ki in assay [1] (read-out: h-5-HT2A Ki) lay in the range of 10 to 100 nM; in assay [2] (read-out: h-5-HT2C Ki), 100 to 500 nM.
